In ChEMBL document CHEMBL4373744, “Modifying the lipophilic part of phenylthiazole antibiotics to control their drug-likeness” (Eur J Med Chem, 2020):
In brackets after ≈: the same amount, converted by molar mass. Activity calls are given as the source filed them. The calls are words filed in the database; no cut-off is given here.

Tests used:
Escherichia coli [1] = assay: Antimicrobial activity against Escherichia coli JW55031 harboring deltatolC mutant by broth liquid microdilution method; format: functional
Escherichia coli [2] = assay: Antimicrobial activity against Escherichia coli BW25113 by broth liquid microdilution method; format: functional
Staphylococcus aureus [3] = assay: microbe, parasite or virus in culture; conditions: NRS384
Description: Antimicrobial activity against methicillin-resistant Staphylococcus aureus NRS384 by broth liquid microdilution method

Staphylococcus aureus [4] = assay: Antimicrobial activity against vancomycin-resistant Staphylococcus aureus 10 by broth liquid microdilution method; format: functional
Staphylococcus aureus [5] = assay: Antimicrobial activity against vancomycin-resistant Staphylococcus aureus 12 by broth liquid microdilution method; format: functional
[6] = tested on: Staphylococcus epidermidis; assay: Antimicrobial activity against methicillin-resistant Staphylococcus epidermidis NRS101 by broth liquid microdilution method; format: functional
Enterococcus faecium = assay: Antimicrobial activity against vancomycin-resistant Enterococcus faecium ATCC 700221 by broth liquid microdilution method; format: functional
Listeria monocytogenes = assay: Antimicrobial activity against Listeria monocytogenes ATCC 19111 by broth liquid microdilution method; format: functional
Streptococcus pneumoniae [7] = assay: Antimicrobial activity against cephalosporin-resistant Streptococcus pneumoniae ATCC 51916 by broth liquid microdilution method; format: functional
Streptococcus pneumoniae [8] = assay: Antimicrobial activity against methicillin-resistant Streptococcus pneumoniae ATCC 700677 by broth liquid microdilution method; format: functional
Staphylococcus aureus [9] = assay: Bactericidal activity against methicillin-resistant Staphylococcus aureus USA400 assessed as reduction in number of colony forming units at 5 times MIC incubated for 24 hrs by aliquots transfer to tryptic soy agar and grown for 18 to 20 hrs by Time-kill assay; format: functional, organism-based
Staphylococcus aureus [10] = assay: Bactericidal activity against methicillin-resistant Staphylococcus aureus USA400 assessed as 3 log reduction in number of colony forming units at 5 times MIC incubated for 10 hrs by aliquots transfer to tryptic soy agar and grown for 18 to 20 hrs by Time-kill assay relative to control; format: functional; design: scale not given: the % may be the effect or the level left
Staphylococcus aureus [11] = assay: microbe, parasite or virus in culture; conditions: ATCC 6538
Description: Antimicrobial activity against methicillin-sensitive Staphylococcus aureus ATCC 6538 by broth liquid microdilution method

Staphylococcus aureus [12] = assay: microbe, parasite or virus in culture; conditions: NRS 107
Description: Antimicrobial activity against methicillin-sensitive Staphylococcus aureus NRS 107 by broth liquid microdilution method

Staphylococcus aureus [13] = assay: microbe, parasite or virus in culture; conditions: NRS119
Description: Antimicrobial activity against methicillin-resistant Staphylococcus aureus NRS119 by broth liquid microdilution method

Staphylococcus aureus [14] = assay: microbe, parasite or virus in culture; conditions: NRS123
Description: Antimicrobial activity against methicillin-resistant Staphylococcus aureus NRS123 by broth liquid microdilution method

Staphylococcus aureus [15] = assay: microbe, parasite or virus in culture; conditions: NRS 385
Description: Antimicrobial activity against methicillin-resistant Staphylococcus aureus NRS 385 by broth liquid microdilution method

Staphylococcus aureus [16] = assay: microbe, parasite or virus in culture; conditions: NRS 386
Description: Antimicrobial activity against methicillin-resistant Staphylococcus aureus NRS 386 by broth liquid microdilution method

Enterococcus faecalis = assay: microbe, parasite or virus in culture; conditions: ATCC 51299

**Q.** With `C/C(=N\NC(=N)N)c1sc(-c2ccc(OCCCCCN3CCSCC3)cc2)nc1C` as the compound, how does the MIC (Escherichia coli [1]) read?
**A.** > 64 µg/mL

**Q.** What about the MIC (Escherichia coli [2]) of the same compound?
**A.** > 64 µg/mL

**Q.** And the MIC (Staphylococcus aureus [3])?
**A.** > 64 µg/mL

**Q.** Which MIC (Escherichia coli [1]) does the source give for `C/C(=N\NC(=N)N)c1sc(-c2ccc(OCCCN3CCOCC3)cc2)nc1C` here?
**A.** > 64 µg/mL

**Q.** And the MIC (Escherichia coli [2])?
**A.** > 64 µg/mL

**Q.** What about the MIC (Staphylococcus aureus [3]) of the same compound?
**A.** 64 µg/mL (≈ 154 µM)

**Q.** Which MBC (Staphylococcus aureus [4]) does the source give for `C/C(=N\NC(=N)N)c1sc(-c2ccc(C#CCCN3CCSC3)cc2)nc1C` here?
**A.** 32 µg/mL (≈ 77.6 µM)

**Q.** What about the MIC (Staphylococcus aureus [4]) of the same compound?
**A.** 4 µg/mL (≈ 9.69 µM)

**Q.** What about the MBC (Staphylococcus aureus [5]) of the same compound?
**A.** 32 µg/mL (≈ 77.6 µM)

**Q.** What about the MIC (Staphylococcus aureus [5]) of the same compound?
**A.** 4 µg/mL (≈ 9.69 µM)

**Q.** What about the MIC (Escherichia coli [1]) of the same compound?
**A.** 16 µg/mL (≈ 38.8 µM)

**Q.** What about the MIC (Escherichia coli [2]) of the same compound?
**A.** 64 µg/mL (≈ 155 µM)

**Q.** And the MBC [6]?
**A.** 8 µg/mL (≈ 19.4 µM)

**Q.** What about the MIC [6] of the same compound?
**A.** 2 µg/mL (≈ 4.85 µM)

**Q.** And the MBC (Enterococcus faecium)?
**A.** 16 µg/mL (≈ 38.8 µM)

**Q.** What about the MIC (Enterococcus faecium) of the same compound?
**A.** 4 µg/mL (≈ 9.69 µM)

**Q.** What about the MBC (Listeria monocytogenes) of the same compound?
**A.** 32 µg/mL (≈ 77.6 µM)

**Q.** And the MIC (Listeria monocytogenes)?
**A.** 4 µg/mL (≈ 9.69 µM)

**Q.** And the MBC (Streptococcus pneumoniae [7])?
**A.** 32 µg/mL (≈ 77.6 µM)

**Q.** What about the MIC (Streptococcus pneumoniae [7]) of the same compound?
**A.** 8 µg/mL (≈ 19.4 µM)

**Q.** What about the MBC (Streptococcus pneumoniae [8]) of the same compound?
**A.** 32 µg/mL (≈ 77.6 µM)

**Q.** What about the MIC (Streptococcus pneumoniae [8]) of the same compound?
**A.** 8 µg/mL (≈ 19.4 µM)

**Q.** What about the Activity (Staphylococcus aureus [9]) of the same compound?
**A.** Active

**Q.** And the Activity (Staphylococcus aureus [10])?
**A.** 99.9%

**Q.** And the MBC (Staphylococcus aureus [11])?
**A.** 32 µg/mL (≈ 77.6 µM)

**Q.** What about the MIC (Staphylococcus aureus [11]) of the same compound?
**A.** 4 µg/mL (≈ 9.69 µM)

**Q.** And the MBC (Staphylococcus aureus [12])?
**A.** 16 µg/mL (≈ 38.8 µM)

**Q.** And the MIC (Staphylococcus aureus [12])?
**A.** 8 µg/mL (≈ 19.4 µM)

**Q.** And the MBC (Staphylococcus aureus [13])?
**A.** 16 µg/mL (≈ 38.8 µM)

**Q.** What about the MIC (Staphylococcus aureus [13]) of the same compound?
**A.** 4 µg/mL (≈ 9.69 µM)

**Q.** And the MBC (Staphylococcus aureus [14])?
**A.** 32 µg/mL (≈ 77.6 µM)

**Q.** What about the MIC (Staphylococcus aureus [14]) of the same compound?
**A.** 4 µg/mL (≈ 9.69 µM)

**Q.** And the MBC (Staphylococcus aureus [3])?
**A.** 32 µg/mL (≈ 77.6 µM)

**Q.** And the MIC (Staphylococcus aureus [3])?
**A.** 4 µg/mL (≈ 9.69 µM)

**Q.** And the MBC (Staphylococcus aureus [15])?
**A.** 16 µg/mL (≈ 38.8 µM)

**Q.** And the MIC (Staphylococcus aureus [15])?
**A.** 4 µg/mL (≈ 9.69 µM)

**Q.** And the MBC (Staphylococcus aureus [16])?
**A.** 16 µg/mL (≈ 38.8 µM)

**Q.** What about the MIC (Staphylococcus aureus [16]) of the same compound?
**A.** 4 µg/mL (≈ 9.69 µM)

**Q.** What about the MBC (Enterococcus faecalis) of the same compound?
**A.** 32 µg/mL (≈ 77.6 µM)

**Q.** And the MIC (Enterococcus faecalis)?
**A.** 8 µg/mL (≈ 19.4 µM)

**Q.** What does the source list for `C/C(=N\NC(=N)N)c1sc(-c2ccc(C#CCCN3CCCCC3C)cc2)nc1C` (stereo not drawn)?
**A.** MIC (Escherichia coli [1]): 32 µg/mL (≈ 75.7 µM); MIC (Escherichia coli [2]): > 64 µg/mL; MIC (Staphylococcus aureus [3]): 16 µg/mL (≈ 37.9 µM)

**Q.** What does the source list for `C/C(=N\NC(=N)N)c1sc(-c2ccc(OCCCCCN3CCSC3)cc2)nc1C`?
**A.** MIC (Escherichia coli [1]): > 64 µg/mL; MIC (Escherichia coli [2]): > 64 µg/mL; MIC (Staphylococcus aureus [3]): > 64 µg/mL

**Q.** Which results are given for `C/C(=N\NC(=N)N)c1sc(-c2ccc(OCCCCN3CCCC3)cc2)nc1C`?
**A.** MIC (Escherichia coli [1]): > 64 µg/mL; MIC (Escherichia coli [2]): > 64 µg/mL; MIC (Staphylococcus aureus [3]): > 64 µg/mL

**Q.** Which results are given for `C/C(=N\NC(=N)N)c1sc(-c2ccc(OCCCCN3CCC3)cc2)nc1C`?
**A.** MIC (Escherichia coli [1]): 16 µg/mL (≈ 39.9 µM); MIC (Escherichia coli [2]): > 64 µg/mL; MIC (Staphylococcus aureus [3]): 8 µg/mL (≈ 20 µM)

**Q.** How did the MIC (Escherichia coli [1]) turn out when `C/C(=N\NC(=N)N)c1sc(-c2ccc(OCCCCN3CCCCCC3)cc2)nc1C` was run?
**A.** > 64 µg/mL

**Q.** What about the MIC (Escherichia coli [2]) of the same compound?
**A.** > 64 µg/mL

**Q.** And the MIC (Staphylococcus aureus [3])?
**A.** > 64 µg/mL

**Q.** Which MBC (Staphylococcus aureus [4]) does the source give for `CC(=O)NC[C@H]1CN(c2ccc(N3CCOCC3)c(F)c2)C(=O)O1` [LINEZOLID] here?
**A.** > 64 µg/mL

**Q.** What about the MIC (Staphylococcus aureus [4]) of the same compound?
**A.** 1 µg/mL (≈ 2.96 µM)

**Q.** And the MBC (Staphylococcus aureus [5])?
**A.** 64 µg/mL (≈ 190 µM)

**Q.** And the MIC (Staphylococcus aureus [5])?
**A.** 1 µg/mL (≈ 2.96 µM)

**Q.** What about the MBC [6] of the same compound?
**A.** 16 µg/mL (≈ 47.4 µM)

**Q.** And the MIC [6]?
**A.** 1 µg/mL (≈ 2.96 µM)

**Q.** What about the MBC (Enterococcus faecium) of the same compound?
**A.** 16 µg/mL (≈ 47.4 µM)

**Q.** What about the MIC (Enterococcus faecium) of the same compound?
**A.** 1 µg/mL (≈ 2.96 µM)

**Q.** And the MBC (Listeria monocytogenes)?
**A.** 16 µg/mL (≈ 47.4 µM)

**Q.** What about the MIC (Listeria monocytogenes) of the same compound?
**A.** ≤ 0.5 µg/mL

**Q.** What about the MBC (Streptococcus pneumoniae [7]) of the same compound?
**A.** 32 µg/mL (≈ 94.9 µM)

**Q.** What about the MBC (Streptococcus pneumoniae [8]) of the same compound?
**A.** 16 µg/mL (≈ 47.4 µM)

**Q.** And the MBC (Staphylococcus aureus [11])?
**A.** 16 µg/mL (≈ 47.4 µM)

**Q.** What about the MIC (Staphylococcus aureus [11]) of the same compound?
**A.** 1 µg/mL (≈ 2.96 µM)

**Q.** What about the MBC (Staphylococcus aureus [12]) of the same compound?
**A.** 64 µg/mL (≈ 190 µM)

**Q.** And the MIC (Staphylococcus aureus [12])?
**A.** 1 µg/mL (≈ 2.96 µM)

**Q.** What about the MBC (Staphylococcus aureus [13]) of the same compound?
**A.** > 64 µg/mL

**Q.** What about the MIC (Staphylococcus aureus [13]) of the same compound?
**A.** 64 µg/mL (≈ 190 µM)

**Q.** And the MBC (Staphylococcus aureus [14])?
**A.** 32 µg/mL (≈ 94.9 µM)

**Q.** What about the MIC (Staphylococcus aureus [14]) of the same compound?
**A.** 1 µg/mL (≈ 2.96 µM)

**Q.** What about the MBC (Staphylococcus aureus [3]) of the same compound?
**A.** 32 µg/mL (≈ 94.9 µM)

**Q.** What about the MIC (Staphylococcus aureus [3]) of the same compound?
**A.** 1 µg/mL (≈ 2.96 µM)

**Q.** What about the MBC (Staphylococcus aureus [15]) of the same compound?
**A.** 32 µg/mL (≈ 94.9 µM)

**Q.** And the MIC (Staphylococcus aureus [15])?
**A.** 1 µg/mL (≈ 2.96 µM)

**Q.** And the MBC (Staphylococcus aureus [16])?
**A.** 64 µg/mL (≈ 190 µM)

**Q.** What about the MBC (Enterococcus faecalis) of the same compound?
**A.** 16 µg/mL (≈ 47.4 µM)

**Q.** `C/C(=N\NC(=N)N)c1sc(-c2ccc(OCCCCN3CCC4CCCCC4C3)cc2)nc1C` (stereo not drawn) was tested. Which MIC (Escherichia coli [1]) did it give?
**A.** > 64 µg/mL

**Q.** What about the MIC (Escherichia coli [2]) of the same compound?
**A.** > 64 µg/mL

**Q.** What about the MIC (Staphylococcus aureus [3]) of the same compound?
**A.** > 64 µg/mL

**Q.** With `C/C(=N\NC(=N)N)c1sc(-c2ccc(OCCCN3CCCCC3C)cc2)nc1C` (stereo not drawn) as the compound, how does the MIC (Escherichia coli [1]) read?
**A.** > 64 µg/mL

**Q.** And the MIC (Escherichia coli [2])?
**A.** > 64 µg/mL

**Q.** What about the MIC (Staphylococcus aureus [3]) of the same compound?
**A.** 64 µg/mL (≈ 149 µM)

**Q.** Which MIC (Escherichia coli [1]) does the source give for `C/C(=N\NC(=N)N)c1sc(-c2ccc(OCCCCCN3CCN(C)CC3)cc2)nc1C` here?
**A.** > 64 µg/mL

**Q.** And the MIC (Escherichia coli [2])?
**A.** > 64 µg/mL

**Q.** What about the MIC (Staphylococcus aureus [3]) of the same compound?
**A.** > 64 µg/mL

**Q.** `C/C(=N\NC(=N)N)c1sc(-c2ccc(OCCCCN3CCSC3)cc2)nc1C` was tested. Which MIC (Escherichia coli [1]) did it give?
**A.** > 64 µg/mL

**Q.** What about the MIC (Escherichia coli [2]) of the same compound?
**A.** > 64 µg/mL

**Q.** What about the MIC (Staphylococcus aureus [3]) of the same compound?
**A.** > 64 µg/mL
